From paper PMC9674851, “Biological effects of the loss of homochirality in a multicellular organism” (Nature Communications, 2022)
Numbered stars: 1 amine (or outer) side, 2 acyl side, 3 side chain; on linkers, the order of the positions; unused ones are H or OH. Square brackets hold non-standard residues; d marks the D form. Peptide text beside a SMILES is read from it. * marks the point of attachment. βAsp = O=C(O)[C@H](CC(=O)[*:2])N[*:1]; AMC = Cc1cc(=O)oc2cc(N*)ccc12

Assays:
[1] = biological target: T1, recombinant human active Caspase-3 (Homo sapiens, UniProt P42574); assay: ChiCAS: chiral-selective in vitro DEVD-ase assay; format: biochemical; conditions: for caspase-3 activity: substrate 20 µM in HEPES assay buffer with 10 mM DTT, fluorescence at 460 nm; for cleavage by Caspase-3 (in words): recombinant human Caspase-3, fluorogenic AMC substrates
T1 construct: Assay was performed with recombinant human active Caspase-3 (556471, BD Biosciences); purchased BD Biosciences 556471
T1 sequence (P42574 29-175 limits assumed): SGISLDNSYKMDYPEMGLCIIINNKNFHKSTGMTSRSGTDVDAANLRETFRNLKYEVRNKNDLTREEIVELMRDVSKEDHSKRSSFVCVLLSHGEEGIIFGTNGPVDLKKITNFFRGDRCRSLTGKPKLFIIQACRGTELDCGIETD
T1 sequence (P42574 176-277 limits assumed): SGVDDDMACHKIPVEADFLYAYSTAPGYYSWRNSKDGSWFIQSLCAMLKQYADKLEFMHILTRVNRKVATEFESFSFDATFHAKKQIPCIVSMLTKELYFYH
Description: The following homochiral and heterochiral fluorogenic substrates were chemically synthesised: Ac-DEV-(L-aspartate)-AMC (positive control), Ac-DEV-(iso-L-aspartate)-AMC, Ac-DEV-(D-aspartate)-AMC, Ac-DEV-(iso-D-aspartate)-AMC, Ac-DEVG-AMC and Ac-DEV-(L-alanine)-AMC (negative control) and […] (custom peptide synthesis by GenScript). All synthetic peptides were dissolved in DMSO and stored at -80 °C. Reactions were performed as described below. Ac-DEVx-AMC substrates were used in a final concentration of 20 μM in assay buffer (50 mM HEPES, 100 mM NaCl, 0,1% CHAPS, 1 mM EDTA, 10% Glycerol, 10 mM DTT - immediately added before use). Assay was performed with recombinant human active Caspase-3 (556471, BD Biosciences). Reactions were performed in 96 well microplates (100 μl/reaction) and caspase activity was monitored spectrophotometrically by the increase in fluorescence at 460 nm using Synergy 4 BioTek fluorescence absorbance microplate reader and Gen5 program.

[2] = design: method as in earlier work; conditions: ref http://www.ilo.org/dyn/icsc/showcard.display?p_version=2&p_card_id=1439; cited from earlier work
[3] = biological target: T2, purified recombinant human Pimt (Homo sapiens, UniProt P22061); assay: Pimt colorimetric continuous enzyme coupled assay (SAM methyltransferase colorimetric assay); format: biochemical; conditions: Pimt 1 µM, substrate 100 µM, 37 °C
T2 construct: purchased Gentaur MBS144034
Description: SAM Methyltransferase colorimetric assay (Merck) was used to measure the activity of purified recombinant human Pimt (EC 2.1.1.77, MBS144034, Gentaur) on different target substrates at 37 °C. Pimt (1 µM final concentration) enzymatic activity was followed spectrophotometrically by the increase in absorbance at 510 nm using DeNovix DS-11 Series microvolume Spectrophotometer/Fluorometer. Assay was performed on different homo- and heterochiral synthetic substrates Ac-[…]-amide (Peptide 1), Ac-KRKGDEV-(iso-L-Asp)-GVDEVAK-amide (Peptide 2) (both of which HPLC purity is >90%), at 100 µM final concentration. The peptide’s sequence is identical and correspond to the PARP1 fragment which is cleaved by Dcp-1 in the in vivo cleavage assay.

T2 sequence (P22061 whole entry): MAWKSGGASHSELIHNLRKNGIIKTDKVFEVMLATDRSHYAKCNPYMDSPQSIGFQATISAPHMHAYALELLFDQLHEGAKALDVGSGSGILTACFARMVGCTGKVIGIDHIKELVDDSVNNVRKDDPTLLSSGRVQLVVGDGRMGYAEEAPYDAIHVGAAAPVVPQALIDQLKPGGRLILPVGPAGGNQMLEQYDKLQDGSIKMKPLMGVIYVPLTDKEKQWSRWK

SMILES	caspase-3 activity ([1]; experiment 1) [R.F.U.]	caspase-3 activity ([1]; experiment 2) [R.F.U.]	caspase-3 activity ([1]; experiment 3) [R.F.U.]	cleavage by Caspase-3 (in words) [1]	Pimt enzymatic activity (in words) [3]	Octanol/water partition coefficient as log Pow [2]
CC(=O)N[C@@H](CC(=O)O)C(=O)N[C@@H](CCC(=O)O)C(=O)N[C@H](C(=O)N[C@@H](C)C(=O)Nc1ccc2c(C)cc(=O)oc2c1)C(C)C [Ac-DEVA-AMC, acetyl-DEVA-7-amido-4-methylcoumarin] (Ac-DEVA-{AMC})	396	61	164	non-cleavable	–	–
N[C@@H](CC(=O)O)C(=O)O [AsparticAcid]	–	–	–	–	–	-3.89

The next lines start with results.

caspase-3 activity ([1]; experiment 1) [R.F.U.]	caspase-3 activity ([1]; experiment 2) [R.F.U.]	caspase-3 activity ([1]; experiment 3) [R.F.U.]	cleavage by Caspase-3 (in words) [1]	Pimt enzymatic activity (in words) [3]	SMILES	Octanol/water partition coefficient as log Pow [2]
650	558	613	non-cleavable	–	CC(=O)N[C@@H](CC(=O)O)C(=O)N[C@@H](CCC(=O)O)C(=O)N[C@H](C(=O)NCC(=O)Nc1ccc2c(C)cc(=O)oc2c1)C(C)C [Ac-DEVG-AMC, acetyl-DEVG-7-amido-4-methylcoumarin] (Ac-DEVG-{AMC})	–
–	–	–	–	no enzymatic activity was detected	CC(=O)N[C@@H](CCCCN)C(=O)N[C@@H](CCCNC(=N)N)C(=O)N[C@@H](CCCCN)C(=O)NCC(=O)N[C@@H](CC(=O)O)C(=O)N[C@@H](CCC(=O)O)C(=O)N[C@H](C(=O)N[C@@H](CC(=O)O)C(=O)NCC(=O)N[C@H](C(=O)N[C@@H](CC(=O)O)C(=O)N[C@@H](CCC(=O)O)C(=O)N[C@H](C(=O)N[C@@H](C)C(=O)N[C@@H](CCCCN)C(N)=O)C(C)C)C(C)C)C(C)C [Peptide 1] (Ac-KRKGDEVDGVDEVAK-NH2)	–
–	–	–	–	active Pimt enzymatic activity	CC(=O)N[C@@H](CCCCN)C(=O)N[C@@H](CCCNC(=N)N)C(=O)N[C@@H](CCCCN)C(=O)NCC(=O)N[C@@H](CC(=O)O)C(=O)N[C@@H](CCC(=O)O)C(=O)N[C@H](C(=O)N[C@@H](CC(=O)NCC(=O)N[C@H](C(=O)N[C@@H](CC(=O)O)C(=O)N[C@@H](CCC(=O)O)C(=O)N[C@H](C(=O)N[C@@H](C)C(=O)N[C@@H](CCCCN)C(N)=O)C(C)C)C(C)C)C(=O)O)C(C)C [Peptide 2] (Ac-KRKGDEV[βAsp]GVDEVAK-NH2)	–
